Data taken from patent publication US20080171745A1, “METHODS RELATING TO THE TREATMENT OF FIBROSIS” (UNIVERSITY OF WASHINGTON, priority 2005, published 2008).

Tests used:
[1] = test system: C57/B16 mice; experiment: Bleomycin induced murine pulmonary fibrosis, lung sections stained with trichrome, body weight and survival; type: in vivo; details: for disease progression, as judged by reduced mortality, histopathology and endogenous gene expression: bleomycin murine model, 5 mg/Kg/day
Procedure: Murine models of bleomycin induced fibrosis have been developed in order to study fibrotic disease progression.
There is an absence of airway epithelium in lower left compared to upper left (see arrow heads) and extensive collagen deposition (lower left). On the sixth day, either saline (upper right) or ICG-001 (5 mgs/Kg/day) was administered for 10 days after which the mice were sacrificed and sectioned. Of interest is the upper right (saline treatment) showing lack of normal airway epithelialization, extensive collagen deposition and intra-airway hypercellularity (fibroblasts and inflammatory influx).

[2] = test system: S100A4; experiment: RT-PCR in bleomycin treated mice; type: in vivo; details: 5 mgs/Kg/day s.c.
[3] = test system: collagen 1A2; experiment: RT-PCR in bleomycin treated mice; type: in vivo; details: 5 mgs/Kg/day s.c.
[4] = test system: IPF patient fibroblasts; experiment: IPF patient fibroblasts, Western blots on whole cell lysates; type: cell-based, human
Procedure: Western blots for S100A4 (also know as FSP-1 or fibroblast specific protein-1) and E-Cadherin were performed on whole cell lysates.

[5] = bleomycin 5 days, then 5 mgs/Kg/day for 10 days
[6] = RPMI 1640+10% FBS, 2 days, whole cell lysates

With `O=C1[C@H](Cc2ccc(O)cc2)N2C(=O)CCN(C(=O)NCc3ccccc3)[C@H]2CN1Cc1cccc2ccccc12` [ICG-001] the “airway histology (epithelialization)” value [1, 5] was “airway looks essentially normal”, the body weight [1, 5] was “regained normal body weight” and the “collagen levels (trichrome stain)” value [1, 5] was “normal collagen levels”. For the same compound, the survival ([1]; bleomycin 5 days, then 5 mgs/Kg/day for 10 days, untreated controls did not survive) was “survived”, the “disease progression, as judged by reduced mortality, histopathology and endogenous gene expression” value [1] was “not only halted but reversed disease progression” and the “disease progression, as judged by reduced mortality, histopathology and endogenous gene expression” value ([1]; listed as ICG-011, 5 mg/kg/day) was “not only halts but reverses disease progression”. For the same compound, the “S100A4 message (RT-PCR)” value [2] was “reduced essentially to negative control”, the “collagen 1A2 message (RT-PCR)” value [3] was “reduced essentially to negative control” and the “S100A4 and E-cadherin expression at the mRNA level” value ([4]; IPF patient fibroblasts) was “this is also true at the mRNA level”. For the same compound, the “E-Cadherin expression, Western blot” value [4, 6] was “increased E-Cadherin expression” and the “S100A4 (FSP-1) expression, Western blot” value [4, 6] was “decreased S100A4 expression”.
